Assay results taken from patent publication US20040023994A1 (priority 2002, published 2004).
Read-outs that look alike come from different tables or passages of the source.

Key:
HL-60(TB) = details: cited from earlier work
SK-MEL-2 [1] = details: SK-MEL-2, Melanoma, NCI database, cited from earlier work
K-562 = details: K-562, Leukemia, NCI database, cited from earlier work
ACHN = details: Renal, NCI database, cited from earlier work
M14 [2] = details: M14, Melanoma, NCI database, cited from earlier work
CCRF-CEM = details: Leukemia, NCI database, cited from earlier work
NCI-H23 = details: NCI-H23, Non-Small Cell Lung, NCI database, cited from earlier work
TK-10 = details: TK-10, Renal, NCI database, cited from earlier work
UO-31 [3] = details: UO-31, Renal, NCI database, cited from earlier work
CAKI-1 [4] = details: CAKI-1, Renal, NCI database, cited from earlier work
[5] = cited from earlier work
UACC-62 = details: UACC-62, Melanoma, NCI database, cited from earlier work
HOP-92 = details: HOP-92, Non-Small Cell Lung, NCI database, cited from earlier work
UACC-257 = details: UACC-257, Melanoma, NCI database, cited from earlier work
MALME-3M = details: Melanoma, NCI database, cited from earlier work
SK-MEL-2 [6] = system: SK-MEL-2
NCI/ADR-RES = details: 48 h
M14 [7] = system: M14
UO-31 [8] = system: UO-31
CAKI-1 [9] = system: CAKI-1
[10] = read-out: LC50 (the source's name)

Compound: Nc1nc2nc[nH]c2c(=S)[nH]1 [6-TG, 6-thioguanine]
- GI50 (HL-60(TB); Leukemia, NCI database): 1070 nM
- TGI (HL-60(TB); Leukemia, NCI database): 17800 nM
- CC50 (HL-60(TB); read-out: LC50, Leukemia, NCI database): > 100000 nM
- GI50 (SK-MEL-2 [1]): 920 nM
- TGI (SK-MEL-2 [1]): 10500 nM
- CC50 (SK-MEL-2 [1]; [10]): > 100000 nM
- GI50 (K-562): 400 nM
- TGI (K-562): 70800 nM
- CC50 (K-562; [10]): > 100000 nM
- CC50 (ACHN; [10]): > 100000 nM
- GI50 (ACHN): 1930 nM
- TGI (ACHN): >100000 nM
- GI50 (M14 [2]): 580 nM
- TGI (M14 [2]): 14300 nM
- CC50 (M14 [2]; [10]): > 100000 nM
- CC50 (CCRF-CEM; [10]): > 100000 nM
- GI50 (CCRF-CEM): 150 nM
- TGI (CCRF-CEM): 25400 nM
- GI50 (NCI-H23): 1060 nM
- TGI (NCI-H23): 22900 nM
- CC50 (NCI-H23; [10]): > 100000 nM
- GI50 (TK-10): 1040 nM
- TGI (TK-10): 78300 nM
- CC50 (TK-10; [10]): > 100000 nM
- GI50 (UO-31 [3]): 1480 nM
- TGI (UO-31 [3]): 32300 nM
- CC50 (UO-31 [3]; [10]): > 100000 nM
- GI50 (CAKI-1 [4]): 530 nM
- TGI (CAKI-1 [4]): 15600 nM
- CC50 (CAKI-1 [4]; [10]): > 100000 nM
- dose absorbed after oral administration [5]: up to 46%
- GI50 (UACC-62): 500 nM
- TGI (UACC-62): 4530 nM
- CC50 (UACC-62; [10]): 74100 nM
- GI50 (HOP-92): 730 nM
- TGI (HOP-92): 24000 nM
- CC50 (HOP-92; [10]): > 100000 nM
- GI50 (UACC-257): 1980 nM
- TGI (UACC-257): 95700 nM
- CC50 (UACC-257; [10]): > 100000 nM
- CC50 (MALME-3M; [10]): > 100000 nM
- GI50 (MALME-3M): 1340 nM
- TGI (MALME-3M): 28600 nM

Compound: CC(=O)C=CSc1ncnc2nc[nH]c12 [cis-AVTP, 6-(2-acetylvinylthio) purine]
- TGI (786-0; 786-0, Renal, 48 h): 3480 nM
- GI50 (786-0; Homo sapiens, 786-0, 48 h): 370 nM
- CC50 (786-0; Homo sapiens, 786-0, 48 h, read-out: LC50): 24900 nM
- GI50 (SK-MEL-2 [6]; Homo sapiens, SK-MEL-2, 48 h): 480 nM
- CC50 (SK-MEL-2 [6]; Homo sapiens, SK-MEL-2, 48 h, read-out: LC50): 40700 nM
- TGI (SK-MEL-2 [6]; SK-MEL-2, Melanoma, 48 h): 8220 nM
- TGI (NCI/ADR-RES; Breast): 2790 nM
- GI50 (NCI/ADR-RES; Homo sapiens): 510 nM
- CC50 (NCI/ADR-RES; Homo sapiens, read-out: LC50): > 100000 nM
- GI50 (OVCAR-5; Homo sapiens, OVCAR-5, 48 h): 1310 nM
- CC50 (OVCAR-5; Homo sapiens, OVCAR-5, 48 h, read-out: LC50): 6570 nM
- TGI (OVCAR-5; OVCAR-5, Ovarian, 48 h): 2940 nM
- GI50 (IGR-OV1; Homo sapiens, IGROV-1, 48 h): 2000 nM
- CC50 (IGR-OV1; Homo sapiens, IGROV-1, 48 h, read-out: LC50): 29800 nM
- TGI (IGR-OV1; IGR-OV1, Ovarian, 48 h): 7720 nM
- GI50 (SW-620; Homo sapiens, SW-620, 48 h): 1520 nM
- CC50 (SW-620; Homo sapiens, SW-620, 48 h, read-out: LC50): > 100000 nM
- TGI (SW-620; SW-620, Colon, 48 h): >100000 nM
- GI50 (OVCAR-8; Homo sapiens, OVCAR-8, 48 h): 1530 nM
- CC50 (OVCAR-8; Homo sapiens, OVCAR-8, 48 h, read-out: LC50): > 100000 nM
- TGI (OVCAR-8; OVCAR-8, Ovarian, 48 h): 5930 nM
- GI50 (M14 [7]; Homo sapiens, M14, 48 h): 70 nM
- CC50 (M14 [7]; Homo sapiens, M14, 48 h, read-out: LC50): 7750 nM
- TGI (M14 [7]; M14, Melanoma, 48 h): 1890 nM
- GI50 (UO-31 [8]; Homo sapiens, UO-31, 48 h): 600 nM
- CC50 (UO-31 [8]; Homo sapiens, UO-31, 48 h, read-out: LC50): 4480 nM
- TGI (UO-31 [8]; UO-31, Renal, 48 h): 1850 nM
- GI50 (SNB-75; Homo sapiens, SNB-75, 48 h): 4190 nM
- CC50 (SNB-75; Homo sapiens, SNB-75, 48 h, read-out: LC50): 49100 nM
- TGI (SNB-75; SNB-75, CNS, 48 h): 18600 nM
- TGI (HCT-116; HCT-116, Colon, 48 h): 1890 nM
- GI50 (HCT-116; Homo sapiens, HCT-116, 48 h): 510 nM
- CC50 (HCT-116; Homo sapiens, HCT-116, 48 h, read-out: LC50): 4730 nM
- TGI (CAKI-1 [9]; CAKI-1, Renal, 48 h): 550 nM
- GI50 (CAKI-1 [9]; Homo sapiens, CAKI-1, 48 h): 110 nM
- CC50 (CAKI-1 [9]; Homo sapiens, CAKI-1, 48 h, read-out: LC50): 2850 nM
